Measured values taken from patent US10654834B2 (Venenum Biodesign, LLC, priority 2016, dated 2020).

Key:
[1] = biological target: T1, human TGR5 receptor (Homo sapiens, UniProt Q8TDU6); assay: Human TGR5 cAMP production assay (hTGR5-CHO cells, DiscoveRx cAMP XS+ kit); assay type: cell-based; settings: luminescent cAMP assay, read-out: Human TGR5 Lum. cAMP Activity (EC50)
T1 construct: host or cells: CHO-K1 (hTGR5-CHO)
T1 sequence (Q8TDU6 1-330): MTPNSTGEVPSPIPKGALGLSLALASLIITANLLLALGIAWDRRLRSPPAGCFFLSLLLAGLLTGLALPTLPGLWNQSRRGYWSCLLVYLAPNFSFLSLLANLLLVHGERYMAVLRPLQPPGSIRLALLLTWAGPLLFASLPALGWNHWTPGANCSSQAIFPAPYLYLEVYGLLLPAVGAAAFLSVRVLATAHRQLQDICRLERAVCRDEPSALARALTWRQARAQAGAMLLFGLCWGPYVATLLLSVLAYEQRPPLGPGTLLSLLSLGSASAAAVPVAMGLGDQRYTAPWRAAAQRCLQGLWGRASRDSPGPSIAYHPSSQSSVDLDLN
Procedure, shortened: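 EC50 values come from luminescent enzyme-complementation cAMP detection, read after overnight incubation. Beforehand, hTGR5-expressing CHO-K1 cells with IBMX and anti-cAMP antibody were exposed 1 h at room temperature to serially diluted (half-log) compounds.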

[2] = biological target: T2, mouse TGR5 receptor (Mus musculus, UniProt Q80SS6); assay: Mouse TGR5 HTRF cAMP production assay (HEK293-EBNA cells, Cisbio cAMP HiRange kit); assay type: cell-based; settings: HEK293-EBNA cells overexpressing mouse TGR5, HTRF cAMP assay
T2 construct: host or cells: HEK293-EBNA (293 c18, ATCC CRL10852)
T2 sequence (Q80SS6 1-329): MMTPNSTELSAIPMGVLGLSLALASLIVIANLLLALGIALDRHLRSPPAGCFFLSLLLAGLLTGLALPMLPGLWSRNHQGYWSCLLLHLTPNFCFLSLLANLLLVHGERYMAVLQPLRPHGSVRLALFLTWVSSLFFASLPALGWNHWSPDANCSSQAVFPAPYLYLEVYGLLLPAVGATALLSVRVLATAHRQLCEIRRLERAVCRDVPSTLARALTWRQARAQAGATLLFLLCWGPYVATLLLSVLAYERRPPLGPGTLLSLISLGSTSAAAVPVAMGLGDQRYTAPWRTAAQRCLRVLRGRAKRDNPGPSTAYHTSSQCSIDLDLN
Procedure, shortened: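 cAMP accumulation was read by competitive HTRF after 1 h room-temperature compound treatment, with a further 1 h conjugate incubation. Cells were mouse TGR5-overexpressing HEK293-EBNA in serum-free DMEM plus 500 μM IBMX. Compounds ran as 12-point half-log series in duplicate, and EC50 values were reported.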

| SMILES | EC50 [1] | EC50 [2] |
| --- | --- | --- |
| CN(C)CCN1CCN(c2cc(N3CC[C@H]3C(=O)NCCc3ccc(C#N)cc3)nc(C(F)(F)F)n2)CC1 [Compound 226, (S)-N-(4-cyanophenethyl)-1-(6-(4-(2-(dimethylamino)ethyl)piperazin-1-yl)-2-(trifluoromethyl)pyrimidin-4-yl)azetidine-2-carboxamide] | 100 to 999 nM | 100 to 999 nM |
| O=C(O)CCNC(=O)N1CCN(c2cc(N3CCC[C@@H](C(=O)NCCc4ccc(C(F)(F)F)cc4)C3)nc(C(F)(F)F)n2)CC1 [Compound 344, (R)-3-(4-(2-(trifluoromethyl)-6-(3-((4-(trifluoromethyl)phenethyl)carbamoyl)-piperidin-1-yl)pyrimidin-4-yl)piperazine-1-carboxamido)propanoic acid] | 100 to 999 nM | < 100 nM |
| N#Cc1ccc(CCNC(=O)[C@@H]2CCCN2c2cc(-c3ccc(CCC(=O)NCCS(=O)(=O)O)cc3)nc(C(F)(F)F)n2)cc1 [Compound 189, (S)-2-(3-(4-(6-(2-((4-cyanophenethyl)carbamoyl)pyrrolidin-1-yl)-2-(trifluoromethyl)pyrimidin-4-yl)phenyl)propanamido)ethanesulfonic acid] | < 100 nM | < 100 nM |
| N#Cc1ccc(CCNC(=O)[C@@H]2CCCN2c2cc(-c3ccc(CNC(=O)NCCS(=O)(=O)O)cc3)nc(C(F)(F)F)n2)cc1 [Compound 191, (S)-2-(3-(4-(6-(2-((4-cyanophenethyl)carbamoyl)pyrrolidin-1-yl)-2-(trifluoromethyl)pyrimidin-4-yl)benzyl)ureido)ethanesulfonic acid] | 100 to 999 nM | < 100 nM |
| N#Cc1ccc(CCNC(=O)[C@@H]2CCCN2c2cc(N3CCC(CCCC(=O)NCCNC(=O)c4cc(NC[C@H](O)[C@@H](O)[C@H](O)[C@H](O)CO)ncn4)CC3)nc(C(F)(F)F)n2)cc1 [Compound 100, N-(2-(4-(1-(6-((S)-2-((4-cyanophenethyl)carbamoyl)pyrrolidin-1-yl)-2-(trifluoromethyl)pyrimidin-4-yl)piperidin-4-yl)butanamido)ethyl)-6-(((2S,3R,4R,5R)-2,3,4,5,6-pentahydroxyhexyl)amino)-pyrimidine-4-carboxamide] | 100 to 999 nM | < 100 nM |
| CCOC(=O)CCNC(=O)NCCC1CCN(c2cc(N3CC[C@H]3C(=O)NCCc3ccc(C#N)cc3)nc(C(F)(F)F)n2)CC1 [Compound 267, (S)-ethyl 3-(3-(2-(1-(6-(2-((4-cyanophenethyl)carbamoyl)azetidin-1-yl)-2-(trifluoromethyl)pyrimidin-4-yl)piperidin-4-yl)ethyl)ureido)propanoate] | < 100 nM | < 100 nM |
| N#CCCC1CCN(c2cc(N3CCC[C@@H](C(=O)NCCc4ccc(C#N)cc4)C3)nc(C(F)(F)F)n2)CC1 [Compound 311, (R)-1-(6-(4-(2-cyanoethyl)piperidin-1-yl)-2-(trifluoromethyl)pyrimidin-4-yl)-N-(4-cyanophenethyl)piperidine-3-carboxamide] | < 100 nM | < 100 nM |
| CC(C)(C)OC(=O)N[C@@H](CO)C(=O)N1CCN(c2cc(N3CCC[C@@H](C(=O)NCCc4ccc(C(F)(F)F)cc4)C3)nc(C(F)(F)F)n2)CC1 [Compound 341, tert-butyl ((S)-3-hydroxy-t-oxo-1-(4-(2-(trifluoromethyl)-6-((R)-3-((4-(trifluoromethyl)phenethyl)carbamoyl)piperidin-1-yl)pyrimidin-4-yl)piperazin-1-yl)propan-2-yl)carbamate] | 1000 to 30000 nM | 100 to 999 nM |
| N[C@@H]1C[C@@H](C(=O)NCCc2ccc(C(F)(F)F)cc2)N(c2cc(N3CCC(CCNC(=O)NCCC(=O)O)CC3)nc(C(F)(F)F)n2)C1 [Compound 375, 3-(3-(2-(1-(6-((2S,4R)-4-amino-2-((4-(trifluoromethyl)phenethyl)carbamoyl)pyrrolidin-1-yl)-2-(trifluoromethyl)pyrimidin-4-yl)piperidin-4-yl)ethyl)ureido)propanoic acid] | 1000 to 30000 nM | 100 to 999 nM |
| O=C(O)CCNC(=O)NCCC1CCN(c2cc(N3C[C@@H](O)C[C@H]3C(=O)NCCc3ccc(C(F)(F)F)cc3)nc(C(F)(F)F)n2)CC1 [Compound 374, 3-(3-(2-(1-(6-((2S,4S)-4-hydroxy-2-((4-(trifluoromethyl)phenethyl)carbamoyl)pyrrolidin-1-yl)-2-(trifluoromethyl)pyrimidin-4-yl)piperidin-4-yl)ethyl)ureido)propanoic acid] | < 100 nM | < 100 nM |
| CN(C)[C@@H]1C[C@@H](C(=O)NCCc2ccc(C(F)(F)F)cc2)N(c2cc(N3CCC(CCNC(=O)NCCC(=O)O)CC3)nc(C(F)(F)F)n2)C1 [Compound 352, 3-(3-(2-(1-(6-((2S,4R)-4-(dimethylamino)-2-((4-(trifluoromethyl)phenethyl)carbamoyl)pyrrolidin-1-yl)-2-(trifluoromethyl)pyrimidin-4-yl)piperidin-4-yl)ethyl)ureido)propanoic acid] | 1000 to 30000 nM | 1000 to 30000 nM |
| N#Cc1ccc(CCNC(=O)[C@@H]2CCCN2c2cc(-c3ccc(CN4CCNCC4)cc3)nc(C(F)(F)F)n2)cc1 [Compound 187, (S)-N-(4-cyanophenethyl)-1-(6-(4-(piperazin-1-ylmethyl)phenyl)-2-(trifluoromethyl)pyrimidin-4-yl)pyrrolidine-2-carboxamide] | 1000 to 30000 nM | 100 to 999 nM |
| CCOC(=O)CCNC(=O)NCCC1CCN(c2cc(N3CCC[C@H]3C(=O)NCCc3ccc(C#N)cc3)nc(C(F)(F)F)n2)CC1 [Compound 55, (S)-ethyl 3-(3-(2-(1-(6-(2-((4-cyanophenethyl)carbamoyl)pyrrolidin-1-yl)-2-(trifluoromethyl)pyrimidin-4-yl)piperidin-4-yl)ethyl)ureido)propanoate] | < 100 nM | < 100 nM |
| N#Cc1ccc(CCNC(=O)[C@@H]2CCCN2c2cc(NCCS(=O)(=O)O)nc(C(F)(F)F)n2)cc1 [Compound 12] | 1000 to 30000 nM | 1000 to 30000 nM |

Second part, the molecule after the results:

| EC50 [1] | EC50 [2] | SMILES |
| --- | --- | --- |
| 100 to 999 nM | < 100 nM | O=C(CCC1CCN(c2cc(N3CC[C@H]3C(=O)NCCc3ccc(C(F)(F)F)cc3)nc(C(F)(F)F)n2)CC1)NCCS(=O)(=O)O [Compound 254, (S)-2-(3-(1-(2-(trifluoromethyl)-6-(2-((4-(trifluoromethyl)-phenethyl)carbamoyl)azetidin-1-yl)pyrimidin-4-yl)piperidin-4-yl)propanamido)ethanesulfonic acid] |
| < 100 nM | < 100 nM | O=C(CS(=O)(=O)O)NCCC1CCN(c2cc(N3CC[C@H]3C(=O)NCCc3ccc(C(F)(F)F)cc3)nc(C(F)(F)F)n2)CC1 [Compound 279, (S)-2-oxo-2-((2-(1-(2-(trifluoromethyl)-6-(2-((4-(trifluoromethyl)phenethyl)carbamoyl)azetidin-1-yl)pyrimidin-4-yl)piperidin-4-yl)ethyl)amino)-ethanesulfonic acid] |
| 100 to 999 nM | < 100 nM | N#Cc1ccc(CCNC(=O)[C@@H]2CCCN2c2cc(-c3ccc(CCNC(=O)NCCS(=O)(=O)O)cc3)nc(C(F)(F)F)n2)cc1 [Compound 194, (S)-2-(3-(4-(6-(2-((4-cyanophenethyl)carbamoyl)pyrrolidin-1-yl)-2-(trifluoromethyl)pyrimidin-4-yl)phenethyl)ureido)ethanesulfonic acid] |
| 100 to 999 nM | < 100 nM | O=C(O)CCCC1CCN(c2cc(N3C[C@H](O)C[C@H]3C(=O)NCCc3ccc(C(F)(F)F)cc3)nc(C(F)(F)F)n2)CC1 [Compound 212, 4-(1-(6-((2S,4R)-4-hydroxy-2-((4-(trifluoromethyl)phenethyl)carbamoyl)pyrrolidin-1-yl)-2-(trifluoromethyl)pyrimidin-4-yl)piperidin-4-yl)butanoic acid] |
| < 100 nM | < 100 nM | N#Cc1ccc(CCNC(=O)[C@@H]2CCCN2c2cc(N3CCC(CCN4C(=O)N[C@@H](CS(=O)(=O)O)C4=O)CC3)nc(C(F)(F)F)n2)cc1 [Compound 122, ((R)-1-(2-(1-(6-((S)-2-((4-cyanophenethyl)carbamoyl)pyrrolidin-1-yl)-2-(trifluoromethyl)pyrimidin-4-yl)piperidin-4-yl)ethyl)-2,5-dioxoimidazolidin-4-yl)methanesulfonic acid] |
| 100 to 999 nM | < 100 nM | N#Cc1ccc(CCNC(=O)[C@@H]2CCN2c2cc(N3CCC(CCCC(=O)NCCOCCNS(=O)(=O)c4ccc(C(=O)O)cc4)CC3)nc(C(F)(F)F)n2)cc1 [Compound 291, (S)-4-(N-(2-(2-(4-(1-(6-(2-((4-cyanophenethyl)carbamoyl)azetidin-1-yl)-2-(trifluoromethyl)pyrimidin-4-yl)piperidin-4-yl)butanamido)ethoxy)ethyl)sulfamoyl)-benzoic acid] |
